Columns and labels:
SKOV3 = assay: Anti-cancer activity against ovarian cancer cells SKOV3 (cell killing in solution / in vitro cell proliferation); assay type: cell-based
Method: (§1) Biotinylated LLS2 was synthesized in solution and loaded it onto a streptavidin-coated plate. The biotinylated LLS2 immobilized on the plate killed approximately 21% of SKOV3 ovarian cancer cells at 100 μM loading, 16% at 50 μM and 14% at 25 μM (FIG. 4). The killing effect of the LLS2 compound was also tested in solution. […] In addition, LLS2 can kill pancreatic cancer cell line XPA3, prostate cancer cell line PC3, colon cancer cell line HT29, breast cancer cell line MCF7 and lung cancer cell line A549 (FIG. 4).

[1] = system: prostate cancer PC3 cancer cells
SKOV3 cells = assay: In vitro combination of LLS2 with paclitaxel on SKOV3 cells; assay type: cell-based
Description: C.I.<0.9 indicates synergism, C.I.=0.9-1.10 indicates additive interaction, and C.I.>1.1 indicates antagonism.
The synergistic effects of LLS2 with current chemotherapeutic drugs including docetaxel, paclitaxel, 5-Fu, oxaliplatin, carboplatin, doxorubicin and gemcitabine were examined in vitro.

GFP-H-Ras(12V) = assay: H-Ras localization (real time confocal) and membrane-associated H-Ras immunoblot; assay type: cell-based
Description: (§2) (b) Once activated by EGF, H-Ras will be partially trafficked to the plasma membrane leading to the activation of Erk pathway. […] (c) Quantification of membrane associated H-Ras (active form) by immunoblot analysis after treatment with buffer (−) or LLS2 (+), showing that LLS2 was able to lower the level of membrane-associated H-Ras. (d) LLS2 also miscolocalized the EGF-stimulated K-Ras(G12V) but not N-Ras(Q61D).
(§3) LLS2 treatment also miscolocalizes the EGF-stimulated K-Ras(G12V), whereas the localization of EGF-stimulated N-Ras(Q61D) is not changed (FIG. 9d). […] Without being bound to any particular theory, this implies that LLS2 induces cell death through suppression of the RAS-ERK pathway.

[2] = system: phospho-MEK and phospho-ERK; assay: Expression level of phospho-MEK and phospho-ERK after LLS2; assay type: cell-based; settings: treatment for 2 hours
Description: as §2, §3

PC3 = assay: In vitro cell proliferation / killing assay on PC3 prostate cancer cells; assay type: cell-based; settings: prostate cancer cell line PC3
Method: as §1

SKOV3 xenograft tumors = assay: SKOV3 xenograft in nude mice, LLS2 alone or with paclitaxel; assay type: in vivo
Description: Briefly, 2.5×10^6 SKOV3 cells were subcutaneously injected to the right side of the dorsal flank of the female congenital athymic BALB/c nude mice. The tumors were allowed to grow to about 100 mm^3.
Then, mice were randomly divided into control and treatment groups (n=5). Mice were given a daily I.V. administration for 5 successive days.
SKOV3 ovarian cancer cells were subcutaneously injected on the dorsal flanks of mice.

K-Ras(G12V) = K-Ras(G12V) localization and Ras activity assay; assay type: cell-based
Description: as §2, §3

N-Ras(Q61D) = N-Ras(Q61D) localization; assay type: cell-based
Description: as §2, §3

galectin-1 = target: T1, galectin-1 (Homo sapiens, UniProt P09382); assay: Pull-down with biotinylated LLS2, LC MS/MS and anti-galectin-1 immunoblot; assay type: binding; settings: biotinylated LLS2, cell membrane protein preparation
T1 construct: endogenous in cells
Method: LLS2 was biotinylated, incubated with a cell membrane protein preparation, and bound proteins were pulled down with immobilized streptavidin resin. The bound proteins were eluted and subjected to identification by LC MS/MS. The MS result identified galectin-1 as the putative target protein of LLS2 (FIG. 8a). The identity of galectin-1 as the target protein of LLS2 was confirmed by immunoblot analysis of proteins eluted from (i) blank streptavidin-beads, (ii) biotin-LLS2/streptavidin beads, and (iii) biotinylated unrelated small molecule/streptavidin beads, using anti-galectin-1 antibody as the western blot probe (FIG. 8b).

A549 = assay: Cell killing by soluble LLS2, lung cancer cell line A549; assay type: cell-based
Method: as §1

HT29 = assay: Cell killing by soluble LLS2, colon cancer cell line HT29; assay type: cell-based
Method: as §1

XPA3 = assay: Cell killing by soluble LLS2, pancreatic cancer cell line XPA3; assay type: cell-based
Method: as §1

MCF7 = assay: Cell killing by soluble LLS2, breast cancer cell line MCF7; assay type: cell-based
Method: as §1

[3] = system: Human umbilical vascular endothelial cells (HUVECs); assay: HUVEC tube-formation assay on Matrigel-coated plates; assay type: cell-based
Method: Human umbilical vascular endothelial cells (HUVECs) we used for tube-formation assays on Matrigel-coated plates as shown in FIG. 10. The expression level of secreted gal-1 in 6 different cancer cell lines was determined using ELISA assay.

[4] = Homo sapiens, SK-OV-3, ovarian cancer cells SKOV3

T1 sequence (P09382 whole entry): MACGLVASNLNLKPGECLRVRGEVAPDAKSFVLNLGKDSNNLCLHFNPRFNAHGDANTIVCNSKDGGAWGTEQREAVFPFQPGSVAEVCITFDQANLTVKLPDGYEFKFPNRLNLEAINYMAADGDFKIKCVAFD

CC(=O)OCCN(CCOC(C)=O)c1ccc(-c2nc3cc(C(CC(N)=O)NC(=O)Nc4ccc(Cl)c(Cl)c4)ccc3n2Cc2ccc(F)c(F)c2)cc1 (centres unmarked) [LLS16, ((4-(5-(3-amino-1-(3-(3,4-dichlorophenyl)ureido)-3-oxopropyl)-1-(3,4-difluorobenzyl)-1H-benzo[d]imidazol-2-yl)phenyl)azanediyl)bis(ethane-2,1-diyl) Diacetate]
IC50 (SKOV3; [4]): 35.1 µM

CC(=O)OCCN(CCO)c1ccc(-c2nc3cc(C(CC(N)=O)NCc4ccc(Cl)c(Cl)c4)ccc3n2Cc2ccc(F)c(Cl)c2)cc1 (centres unmarked) [LLS34, 2-((4-(5-(3-amino-1-((3,4-dichlorobenzyl)amino)-3-oxopropyl)-1-(3-chloro-4-fluorobenzyl)-1H-benzo[d]imidazol-2-yl)phenyl)(2-hydroxyethyl)amino)ethyl Acetate]
IC50 (SKOV3; [4]): 8.9 µM

CC(=O)OCCN(CCOC(C)=O)c1ccc(-c2nc3cc(C(CC(N)=O)NC(=O)[C@@H](N)Cc4ccc(Cl)c(Cl)c4)ccc3n2Cc2cc(F)ccc2F)cc1 (stereo partly drawn) [LLS10, ((4-(5-(3-amino-1-((S)-2-amino-3-(3,4-dichlorophenyl)propanamido)-3-oxopropyl)-1-(2,5-difluorobenzyl)-1H-benzo[d]imidazol-2-yl)phenyl)azanediyl)bis(ethane-2,1-diyl) Diacetate]
IC50 (SKOV3; [4]): 36.4 µM

NC(=O)CC(NC(=O)[C@@H](N)Cc1ccc(F)c(F)c1)c1ccc2c(c1)nc(-c1ccc(N(CCO)CCO)cc1)n2Cc1ccc(F)c(F)c1 (stereo partly drawn) [LLS18, (2S)-2-amino-N-(3-amino-1-(2-(4-(bis(2-hydroxyethyl)amino)phenyl)-1-(3,4-difluorobenzyl)-1H-benzo[d]imidazol-5-yl)-3-oxopropyl)-3-(3,4-difluorophenyl)propanamide]
IC50 (SKOV3; [4]): > 50 µM

CC(=O)OCCN(CCOC(C)=O)c1ccc(-c2nc3cc(C(CC(N)=O)NCc4ccc(F)c(F)c4)ccc3n2CC23CC4CC(CC(C4)C2)C3)cc1 (centres unmarked) [LLS8, ((4-(1-(((1s,3s)-adamantan-1-yl)methyl)-5-(3-amino-1-((3,4-difluorobenzyl)amino)-3-oxopropyl)-1H-benzo[d]imidazol-2-yl)phenyl)azanediyl)bis(ethane-2,1-diyl) Diacetate]
IC50 (SKOV3; [4]): 16.7 µM

CC(=O)OCCN(CCOC(C)=O)c1ccc(-c2nc3cc(C(CC(N)=O)NC(=O)[C@@H](N)Cc4ccc(F)c(F)c4)ccc3n2Cc2ccc(F)c(F)c2)cc1 (stereo partly drawn) [LLS11, ((4-(5-(3-amino-1-((S)-2-amino-3-(3,4-difluorophenyl)propanamido)-3-oxopropyl)-1-(3,4-difluorobenzyl)-1H-benzo[d]imidazol-2-yl)phenyl)azanediyl)bis(ethane-2,1-diyl) Diacetate]
IC50 (SKOV3; [4]): > 50 µM

CC(=O)OCCN(CCOC(C)=O)c1ccc(-c2nc3cc(C(CC(N)=O)N(Cc4ccc(Cl)c(Cl)c4)Cc4ccc(Cl)c(Cl)c4)ccc3n2CC23CC4CC(CC(C4)C2)C3)cc1 (centres unmarked) [LLS25, ((4-(1-(((1s,3s)-adamantan-1-yl)methyl)-5-(3-amino-1-(bis(3,4-dichlorobenzyl)amino)-3-oxopropyl)-1H-benzo[d]imidazol-2-yl)phenyl)azanediyl)bis(ethane-2,1-diyl) Diacetate]
IC50 (SKOV3; [4]): 20.7 µM

CC(=O)OCCN(CCO)c1ccc(-c2nc3cc(C(CC(N)=O)NCc4ccc(Cl)c(Cl)c4)ccc3n2Cc2ccc(OC(F)(F)F)cc2)cc1 (centres unmarked) [LLS35, 2-((4-(5-(3-amino-1-((3,4-dichlorobenzyl)amino)-3-oxopropyl)-1-(4-(trifluoromethoxy)benzyl)-1H-benzo[d]imidazol-2-yl)phenyl)(2-hydroxyethyl)amino)ethyl Acetate]
IC50 (SKOV3; [4]): 10.8 µM

CC(=O)OCCN(CCO)c1ccc(-c2nc3cc(C(CC(N)=O)NC(=O)[C@@H](N)Cc4ccc(Cl)c(Cl)c4)ccc3n2Cc2ccc(F)c(F)c2)cc1 (stereo partly drawn) [LLS5, 2-((4-(5-(3-amino-1-((S)-2-amino-3-(3,4-dichlorophenyl)propanamido)-3-oxopropyl)-1-(3,4-difluorobenzyl)-1H-benzo[d]imidazol-2-yl)phenyl)(2-hydroxyethyl)amino)ethyl Acetate]
IC50 (SKOV3; [4]): 18.7 µM

CC(=O)O[C@H]1C(=O)[C@@]2(C)[C@H]([C@H](OC(=O)c3ccccc3)[C@]3(O)C[C@H](OC(=O)[C@H](O)[C@@H](NC(=O)c4ccccc4)c4ccccc4)C(C)=C1C3(C)C)[C@]1(OC(C)=O)CO[C@@H]1C[C@@H]2O [Paclitaxel, reference compound]
cytotoxicity, single agent [1]: moderate cytotoxicity
cytotoxicity, single agent (SKOV3 cells; SKOV3 cells, at particular concentrations): little effect

CC(=O)OCCN(CCO)c1ccc(-c2nc3cc(C(CC(N)=O)NCc4ccc(Cl)c(Cl)c4)ccc3n2CC23CC4CC(CC(C4)C2)C3)cc1 (centres unmarked) [LLS32, 2-((4-(1-(((1s,3s)-adamantan-1-yl)methyl)-5-(3-amino-1-((3,4-dichlorobenzyl)amino)-3-oxopropyl)-1H-benzo[d]imidazol-2-yl)phenyl)(2-hydroxyethyl)amino)ethyl Acetate]
IC50 (SKOV3; [4]): 10.4 µM

NC(=O)CC(NCc1ccc(Cl)c(Cl)c1)c1ccc2c(c1)nc(-c1ccc(N(CCO)CCO)cc1)n2Cc1ccc(F)c(Cl)c1 (centres unmarked) [LLS31, 3-(2-(4-(bis(2-hydroxyethyl)amino)phenyl)-1-(3-chloro-4-fluorobenzyl)-1H-benzo[d]imidazol-5-yl)-3-((3,4-dichlorobenzyl)amino)propanamide]
IC50 (SKOV3; [4]): 16.4 µM

CC(=O)OCCN(CCOC(C)=O)c1ccc(-c2nc3cc(C(CC(N)=O)NC(=O)[C@@H](N)Cc4ccc(Cl)c(Cl)c4)ccc3n2Cc2ccc(F)c(F)c2)cc1 (stereo partly drawn) [LLS2, ((4-(5-(3-amino-1-((S)-2-amino-3-(3,4-dichlorophenyl)propanamido)-3-oxopropyl)-1-(3,4-difluorobenzyl)-1H-benzo[d]imidazol-2-yl)phenyl)azanediyl)bis(ethane-2,1-diyl) Diacetate]
membrane-localized H-Ras (GFP-H-Ras(12V); 25 μM, 15 mins treatment, EGF-activated): loss of membrane-localized H-Ras
localization of EGF-stimulated GFP-H-Ras(12V) (GFP-H-Ras(12V); 25 μM, 30 min): mis-localizes to intracellular compartments
membrane-associated H-Ras (GFP-H-Ras(12V); LLS2-treated vs non-treated MDCK cells): significant down-expression of H-Ras
expression level of phospho-MEK and phospho-ERK [2]: down-regulated
cell killing (PC3): can kill
tolerability (body weight) (SKOV3 xenograft tumors; LLS2/paclitaxel combination regimen, nude mice): tolerable and without significant side effects
tumor size and weight (SKOV3 xenograft tumors; LLS2 alone, daily I.V. for 5 successive days, SKOV3 xenograft): smaller tumor size
tumor growth (SKOV3 xenograft tumors; combination LLS2/paclitaxel compared to either alone, SKOV3 xenograft): significant suppression of tumor growth
anti-proliferation effect of combined treatment with paclitaxel ([1]; PC3, LLS2 + paclitaxel): much stronger anti-proliferation effects
localization of EGF-stimulated K-Ras(G12V) (K-Ras(G12V)): miscolocalizes
EGF-stimulated levels of K-Ras-GTP (K-Ras(G12V); Ras activity assays): decreases
anti-proliferation effect of combined treatment with paclitaxel (SKOV3 cells; SKOV3, LLS2 + paclitaxel): much stronger anti-proliferation effects
apoptosis after combined LLS2/paclitaxel treatment (SKOV3 cells; SKOV3 cells, 24 hours): Increased apoptosis
localization of EGF-stimulated N-Ras(Q61D) (N-Ras(Q61D)): not changed
target protein identified by pull-down / immunoblot (galectin-1): target protein of LLS2 was indeed galectin-1
IC50 (SKOV3; [4]): 15.7 µM
IC50 (SKOV3; ovarian cancer cells SKOV3): 18.7 µM
cell killing (A549): can kill
cell killing (HT29): can kill
cell killing (XPA3): can kill
cell killing (MCF7): can kill
angiogenic effect of added gal-1 [3]: inhibited
tube-formation activity of PC3 conditioned medium ([3]; 10 μM): neutralized

NC(=O)CC(NCc1ccc(Cl)c(Cl)c1)c1ccc2c(c1)nc(-c1ccc(N(CCO)CCO)cc1)n2Cc1ccc(OC(F)(F)F)cc1 (centres unmarked) [LLS36, 3-(2-(4-(bis(2-hydroxyethyl)amino)phenyl)-1-(4-(trifluoromethoxy)benzyl)-1H-benzo[d]imidazol-5-yl)-3-((3,4-dichlorobenzyl)amino)propanamide]
IC50 (SKOV3; [4]): > 50 µM

CC(=O)OCCN(CCOC(C)=O)c1ccc(-c2nc3cc(C(CC(N)=O)NCc4ccc(Cl)c(Cl)c4)ccc3n2Cc2ccc(Cl)c(Cl)c2)cc1 (centres unmarked) [LLS20, ((4-(5-(3-amino-1-((3,4-dichlorobenzyl)amino)-3-oxopropyl)-1-(3,4-dichlorobenzyl)-1H-benzo[d]imidazol-2-yl)phenyl)azanediyl)bis(ethane-2,1-diyl) Diacetate]
IC50 (SKOV3; [4]): 7.5 µM
